{"source": "PubChem BioAssay AID2060907", "about": "(Molecular Pharmacology Branch, DTP, NCI, 2025)", "tested_on": "388556-164-R-J1-PDC complex spheroid viability", "experiment": "Anticancer human tumor 388556-164-R-J1-PDC patient-derived colon adenocarcinoma cell line growth inhibition [RAS]", "details": "for pIC50: curve of first compound; for viability, T/C: stronger effect = lower value", "outline": "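Multi-cell-type spheroids: tumor cells plus HUVEC endothelial cells and mesenchymal stem cells. RAS-pathway inhibitors were combined with targeted agents, each dosed in half-log steps down from clinical Cmax, or from 10 microM when Cmax was unknown.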", "note": "pIC50: −log10 of the molar value.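 Also: spheroids exposed to compound for 7 days before readout.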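 For viability, T/C in this document: 100% = DMSO vehicle control luminescence.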", "data": [{"smiles": "CC1(O)CCCC1n1c(=O)c(C(F)F)cc2cnc(NC3CCN(S(C)(=O)=O)CC3)nc21", "note": "(configuration not stated) + C=CC(=O)N1CCN(c2nc(OCC3CCCN3C)nc3c(F)c(-c4nc(N)cc(C)c4C(F)(F)F)c(Cl)cc23)C(C)C1", "values": [{"measurement": "pIC50", "setting": "second compound 0.00316 µM", "value": "< 5.00"}, {"measurement": "pIC50", "setting": "second compound 0.01 µM", "value": "< 5.00"}, {"measurement": "pIC50", "setting": "second compound 0.0316 µM", "value": "< 5.00"}, {"measurement": "pIC50", "setting": "second compound 0.1 µM", "value": "< 5.00"}, {"measurement": "pIC50", "setting": "second compound 0.316 µM", "value": "< 5.00"}, {"measurement": "pIC50", "setting": "second compound 1 µM", "value": "< 5.00"}, {"measurement": "viability, T/C", "setting": "second compound 0.00316 µM, first compound 0.0316 µM", "value": 98.3, "unit": "%"}, {"measurement": "viability, T/C", "setting": "second compound 0.00316 µM, first compound 0.1 µM", "value": 103, "unit": "%"}, {"measurement": "viability, T/C", "setting": "second compound 0.00316 µM, first compound 0.316 µM", "value": 105, "unit": "%"}, {"measurement": "viability, T/C", "setting": "second compound 0.00316 µM, first compound 1 µM", "value": 99.8, "unit": "%"}, {"measurement": "viability, T/C", "setting": "second compound 0.00316 µM, first compound 3.16 µM", "value": 109, "unit": "%"}, {"measurement": "viability, T/C", "setting": "second compound 0.00316 µM, first compound 10 µM", "value": 73.5, "unit": "%"}, {"measurement": "viability, T/C", "setting": "second compound 0.01 µM, first compound 0.0316 µM", "value": 93.7, "unit": "%"}, {"measurement": "viability, T/C", "setting": "second compound 0.01 µM, first compound 0.1 µM", "value": 107, "unit": "%"}, {"measurement": "viability, T/C", "setting": "second compound 0.01 µM, first compound 0.316 µM", "value": 101, "unit": "%"}, {"measurement": "viability, T/C", "setting": "second compound 0.01 µM, first compound 1 µM", "value": 98.9, "unit": "%"}, {"measurement": "viability, T/C", "setting": "second compound 0.01 µM, first compound 3.16 µM", "value": 105, "unit": "%"}, {"measurement": "viability, T/C", "setting": "second compound 0.01 µM, first compound 10 µM", "value": 77.2, "unit": "%"}, {"measurement": "viability, T/C", "setting": "second compound 0.0316 µM, first compound 0.0316 µM", "value": 101, "unit": "%"}, {"measurement": "viability, T/C", "setting": "second compound 0.0316 µM, first compound 0.1 µM", "value": 104, "unit": "%"}, {"measurement": "viability, T/C", "setting": "second compound 0.0316 µM, first compound 0.316 µM", "value": 102, "unit": "%"}, {"measurement": "viability, T/C", "setting": "second compound 0.0316 µM, first compound 1 µM", "value": 108, "unit": "%"}, {"measurement": "viability, T/C", "setting": "second compound 0.0316 µM, first compound 3.16 µM", "value": 115, "unit": "%"}, {"measurement": "viability, T/C", "setting": "second compound 0.0316 µM, first compound 10 µM", "value": 81, "unit": "%"}, {"measurement": "viability, T/C", "setting": "second compound 0.1 µM, first compound 0.0316 µM", "value": 103, "unit": "%"}, {"measurement": "viability, T/C", "setting": "second compound 0.1 µM, first compound 0.1 µM", "value": 108, "unit": "%"}, {"measurement": "viability, T/C", "setting": "second compound 0.1 µM, first compound 0.316 µM", "value": 99.5, "unit": "%"}, {"measurement": "viability, T/C", "setting": "second compound 0.1 µM, first compound 1 µM", "value": 99.2, "unit": "%"}, {"measurement": "viability, T/C", "setting": "second compound 0.1 µM, first compound 3.16 µM", "value": 102, "unit": "%"}, {"measurement": "viability, T/C", "setting": "second compound 0.1 µM, first compound 10 µM", "value": 76, "unit": "%"}, {"measurement": "viability, T/C", "setting": "second compound 0.316 µM, first compound 0.0316 µM", "value": 102, "unit": "%"}, {"measurement": "viability, T/C", "setting": "second compound 0.316 µM, first compound 0.1 µM", "value": 91.7, "unit": "%"}, {"measurement": "viability, T/C", "setting": "second compound 0.316 µM, first compound 0.316 µM", "value": 96.9, "unit": "%"}, {"measurement": "viability, T/C", "setting": "second compound 0.316 µM, first compound 1 µM", "value": 97.7, "unit": "%"}, {"measurement": "viability, T/C", "setting": "second compound 0.316 µM, first compound 3.16 µM", "value": 101, "unit": "%"}, {"measurement": "viability, T/C", "setting": "second compound 0.316 µM, first compound 10 µM", "value": 75.3, "unit": "%"}, {"measurement": "viability, T/C", "setting": "second compound 1 µM, first compound 0.0316 µM", "value": 98.7, "unit": "%"}, {"measurement": "viability, T/C", "setting": "second compound 1 µM, first compound 0.1 µM", "value": 102, "unit": "%"}, {"measurement": "viability, T/C", "setting": "second compound 1 µM, first compound 0.316 µM", "value": 100, "unit": "%"}, {"measurement": "viability, T/C", "setting": "second compound 1 µM, first compound 1 µM", "value": 111, "unit": "%"}, {"measurement": "viability, T/C", "setting": "second compound 1 µM, first compound 3.16 µM", "value": 104, "unit": "%"}, {"measurement": "viability, T/C", "setting": "second compound 1 µM, first compound 10 µM", "value": 68.7, "unit": "%"}]}]}
